We go through five compounds from patent publication US12202832B2, “Heterocyclic compounds having a calcium-sensing receptor antagonistic activity” (TAKEDA PHARMACEUTICAL COMPANY LIMITED, priority 2017, dated 2025).

The target of data set [1] is T1, human CaSR (Homo sapiens, UniProt P41180).
T1 construct: expressed in transfected cells; host or cells: CHO cells
T1 sequence (P41180 20-1078): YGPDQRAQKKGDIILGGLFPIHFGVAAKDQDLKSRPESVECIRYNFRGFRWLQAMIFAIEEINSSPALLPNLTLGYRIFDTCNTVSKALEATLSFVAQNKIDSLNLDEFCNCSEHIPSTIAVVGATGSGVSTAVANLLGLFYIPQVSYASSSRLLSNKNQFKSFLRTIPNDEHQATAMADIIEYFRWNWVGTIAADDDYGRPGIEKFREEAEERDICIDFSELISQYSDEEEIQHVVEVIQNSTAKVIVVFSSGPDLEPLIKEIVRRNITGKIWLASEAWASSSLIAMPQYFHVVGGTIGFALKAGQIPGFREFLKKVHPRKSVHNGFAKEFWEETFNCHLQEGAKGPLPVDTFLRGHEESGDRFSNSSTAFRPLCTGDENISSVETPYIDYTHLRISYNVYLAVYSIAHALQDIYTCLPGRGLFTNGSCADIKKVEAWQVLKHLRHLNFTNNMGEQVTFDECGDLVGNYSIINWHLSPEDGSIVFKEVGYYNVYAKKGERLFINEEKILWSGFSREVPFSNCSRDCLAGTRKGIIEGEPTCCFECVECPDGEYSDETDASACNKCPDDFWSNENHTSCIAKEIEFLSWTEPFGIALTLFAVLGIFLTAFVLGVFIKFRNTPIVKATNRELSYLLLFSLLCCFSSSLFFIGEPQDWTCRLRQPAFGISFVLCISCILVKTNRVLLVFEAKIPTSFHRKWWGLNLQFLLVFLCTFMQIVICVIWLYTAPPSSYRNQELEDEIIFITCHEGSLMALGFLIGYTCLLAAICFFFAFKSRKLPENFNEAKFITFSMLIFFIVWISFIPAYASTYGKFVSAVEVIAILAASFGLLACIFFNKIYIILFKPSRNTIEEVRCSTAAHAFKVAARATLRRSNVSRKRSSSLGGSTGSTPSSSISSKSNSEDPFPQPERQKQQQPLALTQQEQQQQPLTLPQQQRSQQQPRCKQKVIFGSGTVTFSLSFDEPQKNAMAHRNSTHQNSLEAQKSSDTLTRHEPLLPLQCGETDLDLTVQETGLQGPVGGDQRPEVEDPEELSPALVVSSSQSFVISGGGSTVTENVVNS
Briefly: Human CaSR antagonist activity (NFAT-Luciferase reporter in CHO cells). The class given is cell-based. The following applies: CHO, CaCl2 final 1.3 mM, 100% = reference antagonist at 10 μM, read-out: Inhibition rate (%) at 3.3 μM. The procedure: CaSR antagonist activity measurement was performed using Bright-Glo Luciferase assay system (Promega Corporation). CHO cells in which human CaSR and NFAT-Luciferase reporter gene were forcibly expressed were suspended in MEM alpha (Wako Pure Chemical Industries, Ltd.) containing 10% dialyzed serum (HyClone). The cells in suspension was seeded in 384-well white plate (Corning) at 10,000/20 μL/well, and cultured in an incubator of 37° C., 5% CO2 for one day. A diluent of Test compound was prepared with assay buffer (MEM alpha containing 10 mM HEPES (Life Technologies) and 10% dialysis serum). The diluent was added to the plate at 5 μL/well and allowed to stand at 37° C. for 10 minutes. Further, a diluent of 7.8 mM CaCl2 prepared with assay buffer (final concentration 1.3 mM) was added at 5 μl/well and allowed to stand in an incubator of 37° C., 5% CO2 for 2 hours. Bright-Glo reagents (Promega Corporation) were added at 10 μL/well, and the obtained mixture was stirred for 5 minutes, and then luminescence intensity was measured using Multi-label reader Envision (PerkinElmer, Inc.). The activity (%) of the test compound was calculated with the definitions in which the luminescence intensity when DMSO is added in place of the test compound is defined as 0% inhibition; and the luminescence intensity when (5R)—N-(1-ethyl-1-(4-ethylphenyl)propyl)-2,7,7-trimethyl-5-phenyl-4,5,6,7-tetrahydropyrazolo[1,5-a] Pyrimidine-3-carboxamide at final concentration of 10 μM is added is defined as 100% inhibition.
A general note: In a reporter assay the amount or activity of a reporter protein is the signal.

Data set [2] deals with CYP3A. The data set can be described thus: CYP induction (CYP3A activity in cryopreserved hepatocytes, P450-Glo CYP3A4 assay). The following applies: % of positive control; inducibility by 10 μmol/L rifampicin defined as 100%; hepatocytes treated 3 days. Type of data set: in vitro ADME. The procedure: Cryopreserved hepatocytes were thawed in a culture medium (In VitroGRO™ CP Medium, Celsis In Vitro Technologies, U.S.A.), and the resultant was added to BioCoat™ Matrigel®™ Matrix Thin-Layer 96 well (Becton, Dickinson and Company, U.S.A.) at a concentration of 40,000 cells/well. After culturing for 24 hours, the culture medium was removed, and replaced with an incubation medium (In VitroGRO™, HI Medium with Torpedo Antibiotic Mix, Celsis In Vitro Technologies, U.S.A.). Cells were cultured for an additional 3 days. The medium was removed on day 4, and the remained cells were treated in the induction medium containing a test compound for 3 days in the presence or absence of 10 μmol/L rifampicin. The induction medium was replaced every day. The test compound addition wells in the presence of 10 μmol/L rifampicin were used to evaluate the inhibitory effect of the test compound on the inducibility of the CYP3A activity by rifampicin. The CYP3A activity was evaluated by measuring luciferin generating amount after the addition of 2 μmol/L luciferin-IPA using IPA P450-Glo™ CYP3A4 assay systems (Promega Corporation, U.S.A.). All cultures were carried out under a humidified environment at 37° C., 5% CO2. The inducibility by rifampicin was defines as 100%, and the inducibility of the test compound (% of positive control) was calculated from the following equation: [(luciferin fluorescence intensity in the absence of rifampicin and the presence of test compound)−(luciferin fluorescence intensity in the absence of rifampicin and test compound)/(luciferin fluorescence intensity in the presence of rifampicin and the absence of test compound)−(Luciferin fluorescence intensity in the absence of rifampicin and test compound)]×100.

Data set [3] addresses T2, CYP3A4 (Homo sapiens, UniProt P08684).
T2 construct: Human liver microsomes purchased from XenoTech, LLC (Lenexa, KS) was used; tissue XenoTech, LLC (Lenexa, KS); host or cells: human liver microsomes
Briefly: CYP3A4 TDI in human liver microsomes (testosterone 6β-hydroxylation). The class given is in vitro ADME. The note with it: 30 μM test compound, 60 min vs 0 min preincubation, solvent acetonitrile. The procedure:
Human liver microsomes purchased from XenoTech, LLC (Lenexa, KS) was used. Test compounds were dissolved in acetonitrile or DMSO/acetonitrile (1:4, v/v). To a human liver microsomes solution adjusted with phosphate buffer (pH 7.4), the test compound solution was added to obtain a human liver microsomes reaction solution having the test compound concentration of 30 μM. To the human liver microsome reaction solution, NADPH production system was added, and the mixture was preincubated at 37° C. for 0 minutes or 60 minutes. After the preincubation, probe substrate testosterone was added, and testosterone metabolite 6β-hydroxytestosterone was analyzed by LC/MS/MS to evaluate CYP3A4 enzymatic activity.
The enzyme activity (% of control) at each preincubation point was calculated from the following equation: % of control={(activity of test compound addition group)/(activity of test compound non-addition group)}×100.
The remaining activity (% remaining) after 60 minutes of preincubation was calculated from the following equation: Remaining activity (%)={activity after 60 minutes (% of control60 min)}/{activity after 0 minutes (% of control0 min)}×100.
For orientation: Liver microsomes are a subcellular fraction often used to study metabolism.

Data set [4] has as its system aortic banding (TAC) models. The following applies: cited from earlier work.
The test system of data set [5] is cardiac hypofunction. The following applies: dosing after cardiac loading; cited from earlier work.
The subject of data set [6] is monocrotaline (MCT)-induced pulmonary hypertension rats. The following applies: cited from earlier work.
Data set [7] concerns hypoxia-induced pulmonary hypertension (HPH) mice. The following applies: cited from earlier work.

T2 sequence (P08684 whole entry): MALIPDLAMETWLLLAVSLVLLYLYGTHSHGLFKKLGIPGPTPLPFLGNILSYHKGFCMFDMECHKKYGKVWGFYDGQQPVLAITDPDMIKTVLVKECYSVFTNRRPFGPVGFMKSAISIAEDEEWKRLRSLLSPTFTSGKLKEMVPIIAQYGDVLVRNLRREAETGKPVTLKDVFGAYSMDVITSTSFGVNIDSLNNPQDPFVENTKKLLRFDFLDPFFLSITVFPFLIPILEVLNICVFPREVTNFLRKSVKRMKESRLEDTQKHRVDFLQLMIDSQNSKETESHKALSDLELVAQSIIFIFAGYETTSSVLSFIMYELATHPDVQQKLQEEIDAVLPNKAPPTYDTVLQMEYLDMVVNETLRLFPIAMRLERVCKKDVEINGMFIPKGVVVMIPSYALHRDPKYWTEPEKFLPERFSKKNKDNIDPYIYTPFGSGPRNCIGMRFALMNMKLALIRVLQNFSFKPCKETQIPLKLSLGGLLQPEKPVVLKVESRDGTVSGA

For the compound `CCc1ccc(C(CC)(NC(=O)c2cnn3c2N[C@@H](c2ccccc2)CC3(C)C)C(=O)N[C@@H](C)C(N)=O)cc1` (single isomer, unassigned) [Example 4], in data set [1], the inhibition at 3.3 µM worked out at 102%. Besides, the Inducibility in data set [2] came out at 20.8%. Further, the “Remaining Activity” value in data set [3] stood at 95.6%.

Turning to `CCc1ccc(C(CC)(NC(=O)c2cnn3c2N[C@@H](c2ccccc2)CC3(C)C)C(=O)N[C@@H](CC)C(N)=O)cc1` (single isomer, unassigned) [Example 6], the inhibition at 3.3 µM in data set [1] came to 105%. In data set [2], this compound displayed an Inducibility of 18.6%. The “Remaining Activity” value in data set [3] is 80.2%.

As to `CCc1ccc(C(CC)(NC(=O)c2cnn3c2N[C@@H](c2ccccc2)CC3(C)C)C(=O)N[C@H](C(N)=O)C(C)C)cc1` (single isomer, unassigned) [Example 12], the inhibition at 3.3 µM in data set [1] was determined as 99%. In addition, the Inducibility in data set [2] was found to be 17.3%. Further, the “Remaining Activity” value in data set [3] is listed as 74.3%.

In the case of `C[C@@H](N[C@H]1CCCC[C@@H]1NC(=O)c1ccc(Cl)cc1)c1cccc2ccccc12` [Calhex231], the “Effect on cardiac hypertrophy” value in data set [4] is recorded as “improves cardiac hypertrophy”. For the same compound, the “Effect on cardiac hypofunction” value in data set [5] is given as “fails to improve cardiac hypofunction”.

Take `CC(C)(Cc1ccc2ccccc2c1)NC[C@@H](O)COc1cccc(Cl)c1C#N` [NPS-2143]: the “Effect on pulmonary hypertension pathology” value was “suppressed cardiac hypertrophy, elevated right ventricular systolic pressure, fibrosis of cardiac muscle tissue, pulmonary vascular remodeling or the like” in data set [6] and “suppressed cardiac hypertrophy, elevated right ventricular systolic pressure, fibrosis of cardiac muscle tissue, pulmonary vascular remodeling or the like” in data set [7].

The inhibition is the drop in the measured response relative to a control, in per cent.
